Results published in patent US6596700B2, “Methods of treating hepatitis delta virus infection with β-L-2'-deoxy-nucleosides” (priority 2000, dated 2003).
pEC50, pIC50: −log10 of the molar value. Where two headings read alike, the source gives them in different places.

Legend:
HDV [1] = settings: cited from earlier work
[2] = system: hepatitis B surface antigen; settings: in vivo; cited from earlier work
HDV [3] = settings: chronically infected animals; cited from earlier work
HDV [4] = settings: patients with chronic delta hepatitis; cited from earlier work
HDV [5] = settings: in vivo, cited from earlier work
Hep G-2 (2.2.15) cells = test: cytotoxicity in Hep G-2 (2.2.15) cells; settings: read-out: Cytotoxicity IC50
hepatitis B virus = test: anti-hepatitis B virus activity in transfected Hep G-2 (2.2.15) cells; format: cell-based
[6] = system: woodchuck hepatitis virus (WHV); test: woodchuck chronic hepatitis model, WHV DNA in serum; format: in vivo, woodchucks (Marmota monax); settings: for activity compared with 3TC (lamivudine): 3TC 10 mg/kg/day; for ng WHV-DNA per ml serum: orally once a day at 10 mg/kg; for activity in the in vivo model / level to which viral load is reduced: woodchucks chronically infected with WHV
Procedure: The efficacy of L-dA, L-dT and L-dC against hepadnavirus infection in woodchucks (Marmota monax) chronically infected with woodchuck hepatitis virus (WHV) was determined. This animal model of HBV infection is widely accepted and has proven to be useful for the evaluation of antiviral agents directed against HBV. There were 3 animals per drug group, and 4 animals per control. In group 1, the animals received a vehicle control; group 2 received lamivudine (3TC) (10 mg/kg/day); groups 3-6 received L-dA (0.01, 0.1, 1.0, 10 mg/kg/day, respectively); groups 7-10 received L-dT (0.01, 0.1, 1.0, 10 mg/kg/day, respectively); and groups 11-14 received L-dC (0.01, 0.1, 1.0, 10 mg/kg/day). […] Assessment of the activity and toxicity was based on the reduction of WHV DNA in serum: dot-blot, quantative PCR.

hepatitis B = settings: for pIC50: single agent, hepatitis B replication in 2.2.15 cells
BFU-E = test: human bone marrow clonogenic assay, BFU-E; format: cell-based
CFU-GM [7] = test: human bone marrow clonogenic assay, CFU-GM; settings: effect on cell growth
CFU-GM [8] = system: CFU-GM
[9] = extracellular DNA, read-out: HBV virions EC50
[10] = replicative intermediates (intracellular DNA), read-out: HBV Ri EC50
[11] = day 0, limit of detection 1 ng/ml

| SMILES | pIC50 (Hep G-2 (2.2.15) cells) | pEC50 (hepatitis B virus; [9]) | pEC50 (hepatitis B virus; [10]) | activity compared with 3TC (lamivudine) [6] | ng WHV-DNA per ml serum [6, 11] [ng/mL] | ng WHV-DNA per ml serum ([6]; day 1) [ng/mL] | ng WHV-DNA per ml serum ([6]; day 3) [ng/mL] | ng WHV-DNA per ml serum ([6]; day 7) [ng/mL] | ng WHV-DNA per ml serum ([6]; day 14) [ng/mL] | activity in the in vivo model [6] | level to which viral load is reduced [6] | BFU-E (BFU-E) [µM] | further results |
| --- | --- | --- | --- | --- | --- | --- | --- | --- | --- | --- | --- | --- | --- |
| Nc1nc2c(ncn2COCCO)c(=O)[nH]1 [Acyclovir] | – | – | – | – | – | – | – | – | – | – | – | – | HDV replication (HDV [1]; in vitro): enhances HDV replication in vitro |
| Cc1cn([C@H]2O[C@@H](CO)[C@H](O)[C@H]2F)c(=O)[nH]c1=O [L-FMAU, 2′-fluoro-5-methyl-beta-L-arabinofuranosyluridine] | – | – | – | – | – | – | – | – | – | – | – | – | level of hepatitis B surface antigen [2]: significantly reduces the level of hepatitis B surface antigen; inhibition of HDV (HDV [3]): potent inhibitor of HDV |
| Nc1ccn([C@@H]2CS[C@H](CO)O2)c(=O)n1 [Lamuvidine, β-L-2′,3′-dideoxy-3′-thiacytidine] | – | – | – | – | – | – | – | – | – | – | – | – | disease activity and HDV-RNA levels (HDV [4]): does not improve disease activity or lower HDV-RNA levels |
| NC(=O)c1ncn([C@@H]2O[C@H](CO)[C@@H](O)[C@H]2O)n1 [Ribavirin] | – | – | – | – | – | – | – | – | – | – | – | – | side-effects (HDV [5]): severe side-effects; virological or biochemical parameters (HDV [5]): did not significantly affect virological or biochemical parameters |
| Cc1ccc(C(=O)Nc2ccc(S(=O)(=O)O)c3cc(S(=O)(=O)O)cc(S(=O)(=O)O)c23)cc1NC(=O)c1cccc(NC(=O)Nc2cccc(C(=O)Nc3cc(C(=O)Nc4ccc(S(=O)(=O)O)c5cc(S(=O)(=O)O)cc(S(=O)(=O)O)c45)ccc3C)c2)c1 [suramin] | – | – | – | – | – | – | – | – | – | – | – | – | toxicity (HDV [5]; human): too toxic to be acceptable for long term use in humans; entry of the virion into hepatocytes (HDV [1]): blocks the entry of the virion into hepatocytes |
| Nc1ncnc2c1ncn2[C@@H]1C[C@@H](O)[C@H](CO)O1 [β-L-dA, 2′-Deoxy-β-L-adenosine] | < 3.70 | 7.00 | 7.00 | more active than 3TC | 436 | 369 | 140 | 102 | 74 | highly active | nearly undetectable | – | % Inhibition (hepatitis B; single agent 0.005 μM): 1%; % Inhibition (hepatitis B; single agent 0.05 μM): 24%; % Inhibition (hepatitis B; single agent 0.5 μM): 90%; pIC50 (hepatitis B): 7.05; BFU-E (BFU-E; effect on cell growth, human bone marrow clonogenic assay): >10 µM; CFU-GM (CFU-GM [7]): >10 µM |
| Nc1ccn([C@@H]2C[C@@H](O)[C@H](CO)O2)c(=O)n1 [β-L-dC, 2′-Deoxy-β-L-cytidine] | < 3.70 | 7.30 | 7.30 | more active than 3TC | 426 | 123 | 62 | 46 | 20 | highly active | nearly undetectable | >10 | % Inhibition (hepatitis B; single agent 0.005 μM): 10%; % Inhibition (hepatitis B; single agent 0.05 μM): 40%; % Inhibition (hepatitis B; single agent 0.5 μM): 95%; pIC50 (hepatitis B): 7.22; CFU-GM (CFU-GM [7]): >10 µM |
| O=c1[nH]cnc2c1ncn2[C@@H]1C[C@@H](O)[C@H](CO)O1 [β-L-dI, 2′-deoxy-β-L-inosine] | < 3.70 | 6.00 | 6.00 | – | – | – | – | – | – | – | – | – | – |
| Cc1cn([C@@H]2C[C@@H](O)[C@H](CO)O2)c(=O)[nH]c1=O [β-L-dT, 2′-Deoxy-β-L-thymidine] | < 3.70 | 7.30 | 7.30 | more active than 3TC | 423 | 45 | 14 | 6 | 1 | highly active | undetectable | >10 | CFU-GM (CFU-GM [8]): >10 µM; viral rebound after withdrawal ([6]; post-treatment): viral rebound is not detected for at least two weeks |
| O=c1ccn([C@@H]2C[C@@H](O)[C@H](CO)O2)c(=O)[nH]1 [β-L-dU, β-L-2′-deoxyuridine] | < 3.70 | 5.30 | 5.30 | – | – | – | – | – | – | – | – | >10 | CFU-GM (CFU-GM [8]): >10 µM |
